The values that follow are results of earlier work, collected in patent US9850267B2, “Crystalline fosaprepitant dicyclohexylamine salt and its preparation” (Navinta, LLC, priority 2015, dated 2017).

For the data set the following is noted: white to off-white amorphous powder.

Regarding `C[C@@H](O[C@H]1OCCN(Cc2nc(O)n(P(=O)(O)O)n2)[C@H]1c1ccc(F)cc1)c1cc(C(F)(F)F)cc(C(F)(F)F)c1` [Fosaprepitant dimeglumine, fosaprepitant dimeglumine], the solubility in water entry is recorded as “freely soluble in water”.
